Tested on: Ramos Burkitt-lymphoma cells
Experiment: Apoptosis assay (Annexin V / PI flow cytometry)
Type: cell-based, human
Conditions: 48 h after treatment with 10 μM
Excerpt: In various therapies such as for proliferative disorders like cancer, the selective induction of apoptosis in proliferating cells such as tumor cells is one of the desirable approaches, and can be mediated by treatment with various anti-proliferative compounds [Blagosklonny MV, Oncogene, 23(16): 2967 (2004); Kaufmann and Eamshaw, Exp Cell Res. 256(1): 42-9 (2000)]. Programmed cell death or apoptosis is the cellular response to stress factors such as DNA damage introduced during conventional anti-cancer treatment. The concerted sequence of events during apoptosis, clearly differentiate this pathway from a non-coordinated form of cell death called necrosis. During the course of apoptosis, characteristic phenotypical cellular changes occur, which include the condensation of chromatin, the shrinkage of cells and finally the fragmentation of chromosomal DNA. One of the very early change caused by apoptotic events occurs in the phospholipids bilayer of the plasma membrane. The phospholipid phosphatidylserine is translocated from the inner to the outer side of the plasma-membrane and, as a result, is exposed to the extracellular space. One way of detecting early apoptotic cells is to determine the amount of phosphatidyl-serine at the extracellular side of the plasma-membrane which is accomplished by the standard flow cytometric method of Annexin V staining. The phospholipids recognizing protein Annexin V binds with high affinity to these inverted and exposed phosphatidyl-serines.
The ability of the compounds in this invention to induce apoptosis was tested in Ramos Burkitt-lymphoma cells. This cell line is one of the gold standard cell lines commonly used as a tissue culture model for B cell lymphoma. Representative compounds as indicated below were added to 80,000 cells per 500 μl growth medium (RPMI1640 medium supplemented with 2 mM L-Glutamine, 10% heat-inactivated FBS, 1 mM Na-Pyruvate and 10 mM HEPES) in 24 well format at various concentrations. Two days after the start of treatment, cells were collected and subjected to the Annexin V staining protocol following the instructions of the manufacturer (BD Biosciences). By using propidium iodide (PI) as a viability control, cells that stain positive for Annexin V, but negative for PI, are undergoing apoptosis.

Structure (SMILES): O=C(Cc1ccc(-c2csc(NC(=O)Cc3ccccc3)n2)s1)NO [Example 1, N-Hydroxy-2-[5-(2-phenylacetylamino-thiazol-4-yl)-thiophen-2-yl]-acetamide]
- % cells in late apoptosis (Ramos): 76%

Source: US20070167499A1, “Biaryl linked hydroxamates: preparation and pharmaceutical applications” (A*BIO Pte Ltd., priority 2003, published 2007)
